Assay [1] relates to rat perifused pancreatic islets. The assay can be described thus: Insulin secretion in rat perifused pancreatic islets, in depth investigation (Phase 1 and Phase 2). The format is cell-based. On the procedure: Animals: Male Wistar rats in the weight range 175-200 g were group housed in standard animal cages at a temperature of 21±2° C. and humidity of 55±10%. Animals were maintained on a 12 h light-dark cycle (lights on 06.00-18.00 h) with free access to standard rodent diet (B&K Universal Ltd standard rat and mouse diet (BK 001 P), Beekay Feeds, B&K Universal Ltd, Hull, East Riding of Yorkshire) and tap water. The rats were accustomed to these conditions for at least one week before experimentation.
Experimental procedures: Three rats (sufficient for the isolation of enough islets to allow for 2 perifusion experiments per day) were sacrificed, the branch of the bile duct leading to the liver and the duodenal end of the duct in the pancreas were clamped and the pancreas distended by injection of ice-cold 0.9 mg/ml collagenase solution into the bile duct. The pancreas were then removed and incubated statically for 10-12 min at 37° C. Following the incubation, 10 ml of cold buffer was added and the suspension shaken vigorously by hand for 1 min. The islets were allowed to settle for 5 min on ice and washed three times using ice-cold buffer. Well formed and good sized islets from 3 rats were hand-picked (under a low power microscope) and pooled and a final selection of islet transferred to the perifusion apparatus. Oxygenated (95% O2/5% CO2) Gey & Gey buffer containing 1 mg/ml bovine serum albumin and 4 mM glucose were used throughout the experiment unless otherwise stated (see Dickinson et al. Eur J Pharmacol 1997;339:69-76 for further details).
On each day, two experiments were performed in parallel in 2 identical, independent sets of perifusion apparatus each consisting of sufficient number of chambers. Each chamber was loaded with 20 hand-picked islets. Islets were perifused for an initial 30 min period in media containing 4 mM glucose. Perifusate was collected at 2 min intervals for the remainder of the experiment. After the first 10 min of the experiment (to collect baseline insulin values), the media in each chamber were switched to one containing the relevant drug concentration/vehicle/glucose concentration and perifusate collected for a further 62 min to produce a total of 36 fractions for each chamber.
Experiments were organised to evaluate firstly (Phase I) the effect of Compounds at a single concentration on glucose-stimulated insulin secretion (two independent sets of experiments) and secondly (Phase II), determination of the dose-dependent effect of these compounds to inhibit insulin secretion at 11 mM glucose (three independent sets of experiments).
Perifusate fractions were stored at −75° C. until required for insulin assay. Insulin content of fractions were assayed using a 96-well ELISA assay (Mercodia). Initial insulin assays were performed on only every third fraction (72 assays per experiment).

In assay [2] the test system is male sugar rats [Ico: ZUCKER-fa/fa (fatty)]. The experiment in a line: 2 week chronic administration: body weight gain in male sugar rats (ZUCKER-fa/fa). The format is in vivo, rat. Particulars: for decrease of body weight in comparison to vehicle-treated rats: day 14. On the procedure: Studies were performed in male sugar rats [[Ico: ZUCKER-fa/fa (fatty) (Orl] (Charles River France) weighing initially 400 to 490 g. Animals were housed two or three in a plastic cage in a temperature (20-24° C.), relative humidity (45-65%) and 12-h light/dark cycle (light 7:00 a.m. to 7:00 p.m.)—controlled room for 6 days before being used. All animals had free access to filtered tap water and standard pelleted laboratory chow (U.A.R., Villemois-son-sur-Orge, France). Animals were individually identified on the tail.
At the end of the acclimatization period, animals were individually housed in wire-topped plastic cages. A pre-weighed quantity of food and water were placed on the roof grids. Each rat was acclimated to the handling and dosing procedure the 3 days preceding the start of treatment. Water and food intake was measured during the 24 h that followed dosing procedure to establish baseline food and water intake for each animal. Thereafter, the rats were randomly assigned to either vehicle or drug treatment groups.
Between 9:00-10:00 a.m. on the day of study, the animals were injected p.o. with either vehicle or differing doses of test compounds in a volume of 2 ml/kg each day for 14 consecutive days. During the 5-day post-treatment period, vehicle was given to all groups.
Daily food and water intake was determined per cage throughout the 14-day treatment period and the 5-day post-treatment period. Individual body weights were checked daily for the subsequent treatment and post-treatment periods. Data were collected before each dosing procedure.

The target of a further assay is T1, hamster SUR1 (Cricetus cricetus, UniProt Q09427).
T1 construct: expressed in transfected cells; host or cells: COS-1 cells, transient transfection (pcDNA vector), membrane preparation
T1 sequence (Q09427 whole entry): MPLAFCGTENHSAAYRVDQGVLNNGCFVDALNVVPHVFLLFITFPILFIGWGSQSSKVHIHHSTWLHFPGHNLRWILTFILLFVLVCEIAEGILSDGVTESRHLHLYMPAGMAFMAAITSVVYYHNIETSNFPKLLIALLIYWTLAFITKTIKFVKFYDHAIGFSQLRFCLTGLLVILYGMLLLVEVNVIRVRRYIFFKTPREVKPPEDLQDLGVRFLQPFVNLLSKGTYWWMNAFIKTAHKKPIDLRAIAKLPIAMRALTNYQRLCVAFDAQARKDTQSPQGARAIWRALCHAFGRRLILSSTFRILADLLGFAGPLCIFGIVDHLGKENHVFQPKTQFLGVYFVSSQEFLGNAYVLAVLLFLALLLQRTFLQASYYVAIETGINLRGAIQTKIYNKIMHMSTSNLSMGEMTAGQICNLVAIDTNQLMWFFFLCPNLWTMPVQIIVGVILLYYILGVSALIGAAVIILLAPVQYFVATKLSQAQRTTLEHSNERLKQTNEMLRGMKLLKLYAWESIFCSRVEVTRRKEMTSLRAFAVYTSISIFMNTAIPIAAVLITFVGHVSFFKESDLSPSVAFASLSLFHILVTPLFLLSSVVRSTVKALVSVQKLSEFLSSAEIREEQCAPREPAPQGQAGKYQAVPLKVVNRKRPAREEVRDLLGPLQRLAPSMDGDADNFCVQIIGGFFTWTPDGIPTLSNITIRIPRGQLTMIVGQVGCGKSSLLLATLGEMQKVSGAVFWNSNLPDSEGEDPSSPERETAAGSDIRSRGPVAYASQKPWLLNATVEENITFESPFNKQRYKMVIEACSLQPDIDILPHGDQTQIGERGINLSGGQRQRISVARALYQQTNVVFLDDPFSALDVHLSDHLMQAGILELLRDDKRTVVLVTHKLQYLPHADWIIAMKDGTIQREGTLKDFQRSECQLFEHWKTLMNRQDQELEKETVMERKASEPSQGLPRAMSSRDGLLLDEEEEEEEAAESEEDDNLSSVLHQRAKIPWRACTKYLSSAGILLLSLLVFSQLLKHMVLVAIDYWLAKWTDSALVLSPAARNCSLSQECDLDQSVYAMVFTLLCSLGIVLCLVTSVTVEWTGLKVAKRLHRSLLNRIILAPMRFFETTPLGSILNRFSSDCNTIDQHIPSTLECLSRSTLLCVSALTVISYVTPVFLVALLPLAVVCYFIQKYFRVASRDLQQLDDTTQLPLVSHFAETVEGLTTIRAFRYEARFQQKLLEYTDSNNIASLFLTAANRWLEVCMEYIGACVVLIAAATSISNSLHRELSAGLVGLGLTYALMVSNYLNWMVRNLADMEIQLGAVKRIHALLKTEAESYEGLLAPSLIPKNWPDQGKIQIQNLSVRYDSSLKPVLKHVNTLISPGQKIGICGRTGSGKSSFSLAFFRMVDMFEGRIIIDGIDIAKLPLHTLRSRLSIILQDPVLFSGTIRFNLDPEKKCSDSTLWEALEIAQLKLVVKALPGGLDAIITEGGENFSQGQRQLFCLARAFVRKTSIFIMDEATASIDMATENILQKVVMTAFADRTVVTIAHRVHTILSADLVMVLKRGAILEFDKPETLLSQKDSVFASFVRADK
The assay can be described thus: Competitive binding to sulfonylurea and KCO sites of SUR1 ([3H]glibenclamide displacement, COS-cell membranes). Particulars: SUR1 versus SUR2 selectivity, in words. On the procedure: Competitive binding experiments were performed to characterize the affinity of the test compounds for the binding sites for sulfonylureas and KATP channel openers (=KCOs) on hamster SUR1. To assess the affinity for the sulfonylurea site membranes from COS-cells transiently expressing hamster SUR1 were incubated in the presence of [^3H]glibenclamide with increasing concentrations of test compounds. […] Per curve 9-15 distinct concentrations were tested covering the relevant range. All measurements were repeated at least 5 times in independent experiments.
[^3H]glibenclamide (specific activity 51 Ci mmol^−1) was obtained from NEN (Dreieich, Germany). If suitable, stock solutions were prepared in dimethylsulfoxide with a final solvent concentration in the media below 1%.
SUR- or Kir6.x isoforms were used either subcloned in the pcDNA (hamster SUR1, mouse Kir6.2) or pCMV vector (rat SUR2A, SUR2B).
For transfection the cells were incubated 4 hours in a Tris-buffered salt solution containing DNA (5-10 μg/ml) plus DEAE-dextran (1 mg/ml), 2 min in HEPES-buffered salt solution plus dimethylsulfoxide (10%) and 4 hours in DMEM-HG plus chloroquine (100 μM). Cells were then returned to DMEM-HG plus 10% FCS. […] For binding experiments resuspended membranes (final protein concentration 5-50 μg/ml) were incubated in “Tris-buffer” (50 mM, pH 7.4) containing either [^3H]glibenclamide (final concentration 0.3 nM or 3 nM and nonspecific binding defined by 100 nM or 1 μM glibenclamide for SUR1 or SUR2Y1205S-isoforms, respectively) or [^3H]P1075 (final concentration 3 nM, nonspecific binding defined by 100 μM pinacidil) and increasing concentrations of the test compounds. […] Incubations were carried out for 1 h at room temperature and were terminated by rapid filtration through Whatman GF/B filters.
The inhibition constant (Ki value) of the test substances was calculated from the respective IC50 value, and was stated as the negative logarithmised value thereof (pKi).

In assay [3] the test system is glucose-stimulated insulin release. The experiment in a line: Inhibition of glucose-stimulated insulin release (NN-414 versus diazoxide). The format is cell-based.
Another assay concerns obese patients. The note with it: chronic treatment, e.g. over a period of 1 year; cited from earlier work.
The subject of a further assay is fatty Zucker rat. The experiment in a line: Acute oral glucose tolerance test (OGTT) in the fatty Zucker rat. In kind it is in vivo. The note with it: acute administration (over a period of 1 day).
Another assay relates to Kir6.2/SUR1 KATP channel. The experiment in a line: Opening of the Kir6.2/SUR1 KATP channel. In kind it is biochemical.

Turning to `CNC(=NS(=O)(=O)c1ccc(Cl)cc1)N1C[C@H](c2ccccc2)C(c2ccc(Cl)cc2)=N1` [Compound A, (4S)-3-(4-chlorophenyl)-N′-[(4-chlorophenyl)sulfonyl]-N-methyl-4-phenyl-4,5-dihydro-1H-pyrazole-1-carboximidamide], the “effect on insulin secretion at 4 mM glucose” value in assay [1] (Phase 1, 10 μM, 4 mM glucose) was “no effect of compound A on insulin secretion at 4 mM glucose in two experiments and a slight effect to stimulate insulin secretion in one experiment”. The “effect on insulin secretion at 8 mM glucose” value in assay [1] (Phase 1, 10 μM, 8 mM glucose) was “completely inhibited insulin secretion at 8 mM glucose in two of the experiments and moderately inhibited insulin secretion in the third experiment”. In addition, in assay [1] (Phase 1, 10 μM, 16 mM glucose), the “effect on insulin secretion at 16 mM glucose” value is recorded as “moderate effect to inhibit insulin secretion in one experiment but only a slight effect in the other experiment”. Further, in assay [1] (Phase 2, 11 mM glucose), the “dose dependency of effect on mean insulin secretion” value is given as “dose-dependent effects to inhibit mean insulin secretion”; the “doses at which inhibition of mean insulin secretion attained statistical significance” value is 3 µM and 10 µM. Further, in assay [1] (Phase 2, 11 mM glucose, 10 μM), the “effect on time-dependent insulin secretion” value was “clearly more effective than the comparable (10 μM) dose of diazoxide” and the “reduction of mean insulin secretion” value is reported as 74%. For the same compound, the “dose dependency of effect on time-dependent insulin secretion” value in assay [1] (Phase 2, 11 mM glucose, four doses) was “dose-dependent effects to block insulin secretion”. Also, the “decrease of body weight in comparison to vehicle-treated rats” value (“decrease of body weight in comparison” below) in assay [2] (3 mg/kg p.o. daily) came out at 5.3%. Besides, the “decrease of body weight in comparison” value in assay [2] (10 mg/kg p.o. daily) is given as 6.7%. In assay [2] (30 mg/kg p.o. daily), the “decrease of body weight in comparison” value is listed as 5.9%. Also, the “effect on body weight during treatment” value in assay [2] (3, 10 and 30 mg/kg p.o., 14 days) is recorded as “sustained non dose-dependent reduction in body weight at all doses administered”. The “body weight on interruption of drug treatment” value in assay [2] (5-day post-treatment period) is on record as “progressively returned towards control levels”. The “pki (SUR1) compared with pki (SUR2)” value on hamster SUR1 is “pki (SUR1) larger than pki (SUR2)”.

`CC1(NC2=Nc3cc(Cl)sc3S(=O)(=O)N2)CC1` [NN-414]: the “potency to inhibit glucose-stimulated insulin release relative to diazoxide” value in assay [3] was determined as 100 times.

As for `Cc1c(C(=O)NN2CCCCC2)nn(-c2ccc(Cl)cc2Cl)c1-c1ccc(Cl)cc1` [5-(4-chlorophenyl)-1-(2,4-dichlorophenyl)-4-methyl-N-piperidin-1-yl-1H-pyrazole-3-carboxamide], in the assay with obese patients, the “glucose tolerance and insulin resistance in obese patients” value was “improve glucose tolerance and insulin resistance”. Also, in the assay on fatty Zucker rat, the “glucose plasma levels in OGTT” value was “strong increase in glucose plasma levels” and the “insulin release in OGTT” value was “significantly reduced inhibition of insulin release”. Besides, the “opener activity at the Kir6.2/SUR1 KATP channel” value in the assay with Kir6.2/SUR1 KATP channel is recorded as “potent opener”.

Values taken from US8058264B2, “Pharmaceutical compositions comprising CB1 cannabinoid receptor antagonists and potassium channel openers for the treatment of obesity and related conditions” (Abbott Products GmbH, priority 2004, dated 2011).
